Values quoted from earlier work as cited in patent US20180133147A1, “Drug Delivery Systems” (Novartis AG, priority 2013, published 2018).
Where two headings read alike, the source gives them in different places.

In the case of octreotide pamoate, the solubility in water (25° C.) is given as 0.2 mg/mL.
In the case of pasireotide pamoate, the solubility in water is listed as 0.02 mg/mL.
For vapreotide pamoate, the “solubility in phosphate buffer saline” value (PBS pH 7.4) is given as 0.02 to 0.04 mg/mL.
